From US7732468B2, “3-aryl-6-aryl-[ 1,2,4]triazolo[3,4-b][1,3,4]thiadiazoles and related compounds as activators of caspases and inducers of apoptosis and the use thereof” (Cytovia, Inc., priority 2006, dated 2010)

Tests used:
Format in all cases: cell-based
[1] = system: human hepatocellular carcinoma cell line SNU398; test: Caspase cascade activation in SNU398 cells; conditions: SNU-398, 48 h incubation, read-out: caspase potency EC50 SNU398
Experimental: (§1) Human breast cancer cell lines T-47D, human hepatocellular carcinoma cell line SNU398, human colon carcinoma cell line HCT116, human cancer cell line H11299, human Burkitt's lymphoma cell line Namalwa, human lymphoma cell line Raji, and human B cell lymphoblastoid cell line Ramos were grown according to media component mixtures designated by American Type Culture Collection+10% FCS (Invitrogen Corporation), in a 5% CO2-95% humidity incubator at 37° C. T-47D and H1299 cells were maintained at a cell density between 50 and 80% confluency at a cell density of 0.1 to 0.6×10^6 cells/mL. Cells were harvested at 600×g and resuspended at 0.65×10^6 cells/mL into appropriate media+10% FCS. An aliquot of 22.5 μL of cells was added to a well of a 384-well microtiter plate containing 2.5 μL of a 10% DMSO in RPMI-1640 media solution containing 0.16 to 100 μM of 6-(3,4-dimethoxyphenyl)-3-(2-methoxyphenyl)-[1,2,4]triazolo[3,4-b][1,3,4]thiadiazole or other test compound (0.016 to 10 μM final). An aliquot of 22.5 μL of cells was added to a well of a 384-well microtiter plate containing 2.5 μL of a 10% DMSO in RPMI-1640 media solution without test compound as the control sample. The samples were mixed by agitation and then incubated at 37° C. for 48 h in a 5% CO2-95% humidity incubator. After incubation, the samples were removed from the incubator and 25 μL of a solution containing 14 μM of N-(Ac-DEVD)-N′-ethoxycarbonyl-R110 (SEQ ID No.:1) fluorogenic substrate (Cytovia, Inc.; WO99/18856), 20% sucrose (Sigma), 20 mM DTT (Sigma), 200 mM NaCl (Sigma), 40 mM Na PIPES buffer pH 7.2 (Sigma), and 500 μg/mL lysolecithin (Calbiochem) was added. The samples were mixed by agitation and incubated at room temperature. Using a fluorescent plate reader (Model SPECTRAfluor Plus, Tecan), an initial reading (T=0) was made approximately 1-2 min after addition of the substrate solution, employing excitation at 485 nm and emission at 530 nm, to determine the background fluorescence of the control sample. After the 3 h incubation, the samples were read for fluorescence as above (T=3 h).
(§2) The Relative Fluorescence Unit values (RFU) were used to calculate the sample readings as follows: RFU(T=3h)−Control RFU(T=0)=Net RFU(T=3h)
(§3) The activity of caspase cascade activation was determined by the ratio of the net RFU value for 6-(3,4-dimethoxyphenyl)-3-(2-methoxyphenyl)-[1,2,4]triazolo[3,4-b][1,3,4]thiadiazole (Example I) or other test compound to that of control samples. The EC50 (nM) was determined by a sigmoidal dose-response calculation (Prism 3.0, GraphPad Software Inc.).

[2] = system: human leukemia cell line K562; test: Inhibition of cell proliferation (GI50) in K562 cells; conditions: 48 h incubation
Experimental: (§4) Human breast cancer cell lines T-47D, MX1 and MDAMB435, human colon carcinoma cell line HCT116, human leukemia cell line K562, human lymphoma cell line Raji, human B cell lymphoblastoid cell line Ramos, and human Burkitt's lymphoma cell line Namalwa were grown and harvested as in Example 14. An aliquot of […] of cells (4.4×10^4 cells/mL) was added to a well of a 96-well microtiter plate containing 5 μL of a 10% DMSO in RPMI-1640 media solution containing 10 nM to 100 μM of 6-(3,4-dimethoxyphenyl)-3-(2-methoxyphenyl)-[1,2,4]triazolo[3,4-b][1,3,4]thiadiazole (1 nM to 10 μM final). An aliquot of 45 μL of cells was added to a well of a 96-well microtiter plate containing 5 μL of a 10% DMSO in RPMI-1640 media solution without compound as the control sample for maximal cell proliferation (LMax). The samples were mixed by agitation and then incubated at 37° C. for 48 h in a 5% CO2-95% humidity incubator. After incubation, the samples were removed from the incubator and 25 μL of CellTiter-Glo™ reagent (Promega) was added. The samples were mixed by agitation and incubated at room temperature for 10-15 min. Plates were then read using a luminescent plate reader (Model SPECTRAfluor Plus, Tecan) to give Ltest values.
(§5) The samples were mixed by agitation and then incubated at 37° C. for 0.5 h in a 5% CO2-95% humidity incubator. After incubation, the samples were removed from the incubator and 25 μL of CellTiter-Glo™ reagent (Promega) was added. The samples were mixed by agitation and incubated at […] 10-15 min at room temperature in a 5% CO2-95% humidity incubator. Fluorescence was read as above, (LStart) defining luminescence for initial cell number used as baseline in GI50 determinations.
(§6) GI50 (dose for 50% inhibition of cell proliferation) is the concentration where [(LTest−LStart)/(LMax−LStart)]=0.5.

[3] = system: Human breast cancer cell lines T-47D; test: Caspase cascade activation (Ac-DEVD-R110 fluorogenic substrate) in T-47D cells; conditions: T47D cells, 48 h incubation, read-out: caspase potency EC50 T47D
Experimental: as §1, §2, §3

[4] = system: human colon carcinoma cell line HCT116; test: Caspase cascade activation in HCT116 cells; conditions: HCT-116, 48 h incubation, read-out: caspase potency EC50 HCT116
Experimental: as §1, §2, §3

[5] = system: human Burkitt's lymphoma cell line Namalwa; test: Inhibition of cell proliferation (GI50) in Namalwa cells; conditions: Burkitts lymphoma cell, 48 h incubation
Experimental: as §4, §5, §6

[6] = system: human colon carcinoma cell line HCT116; test: Inhibition of cell proliferation (GI50) in HCT116 cells; conditions: HCT 116 cells, 48 h incubation
Experimental: as §4, §5, §6

[7] = system: human Burkitt's lymphoma cell line Namalwa; test: Caspase cascade activation in Namalwa cells; conditions: Burkitts lymphoma cell, 48 h incubation, read-out: caspase potency EC50 Namalwa
Experimental: as §1, §2, §3

[8] = system: human lymphoma cell line Raji; test: Caspase cascade activation in Raji cells; conditions: RAJ1 cells, 48 h incubation, read-out: caspase potency EC50 RAJ1
Experimental: as §1, §2, §3

[9] = system: human lymphoma cell line Raji; test: Inhibition of cell proliferation (GI50) in Raji cells; conditions: 48 h incubation
Experimental: as §4, §5, §6

[10] = system: human B cell lymphoblastoid cell line Ramos; test: Caspase cascade activation in Ramos cells; conditions: 48 h incubation, read-out: caspase potency EC50 RAMOS
Experimental: as §1, §2, §3

[11] = system: human B cell lymphoblastoid cell line Ramos; test: Inhibition of cell proliferation (GI50) in Ramos cells; conditions: 48 h incubation
Experimental: as §4, §5, §6

| Structure (SMILES) | EC50 [1] | GI50 [2] | EC50 [3] | EC50 [4] | GI50 [5] | GI50 [6] | EC50 [7] | EC50 [8] | GI50 [9] | EC50 [10] | GI50 [11] |
| --- | --- | --- | --- | --- | --- | --- | --- | --- | --- | --- | --- |
| CCN(CC)c1ccc(-c2nn3c(-c4ccccc4C)nnc3s2)cc1 [Entry F1, 6-(4-Diethylaminophenyl)-3-o-tolyl-[1,2,4]triazolo[3,4-b][1,3,4]thiadiazole] | 751 nM | 303 nM | 666 nM | 1720 nM | 372 nM | 694 nM | 734 nM | 1020 nM | 801 nM | 712 nM | 113 nM |
| CN(C)c1ccc(-c2nn3c(-c4ccccc4Cl)nnc3s2)cc1 [Entry E1, 3-(2-Chlorophenyl)-6-(4-dimethylaminophenyl)-[1,2,4]triazolo[3,4-b][1,3,4]thiadiazole] | 556 nM | 332 nM | 1090 nM | 1200 nM | 167 nM | 2040 nM | 327 nM | 573 nM | 519 nM | 325 nM | 146 nM |
| Cc1ccccc1-c1nnc2sc(-c3ccc(N(C)C)cc3)nn12 [Entry I1, 6-(4-Dimethylaminophenyl)-3-o-tolyl-[1,2,4]triazolo[3,4-b][1,3,4]thiadiazole] | 596 nM | 350 nM | 864 nM | 1330 nM | 142 nM | 1190 nM | 510 nM | 634 nM | 253 nM | 558 nM | 93 nM |
| COc1cc(-c2nnc3sc(-c4ccco4)nn23)cc(OC)c1OC [R, 6-(Furan-2-yl)-3-(3,4,5-trimethoxyphenyl)-[1,2,4]triazolo[3,4-b][1,3,4]thiadiazole] | 183 nM | 150 nM | 203 nM | 216 nM | 450 nM | 1500 nM | 244 nM | 253 nM | 651 nM | 241 nM | 442 nM |
| COc1cc(-c2nnc3sc(-c4ccc(C)cc4)nn23)cc(OC)c1OC [Entry B1, 6-p-Tolyl-3-(3,4,5-trimethoxyphenyl)-[1,2,4]triazolo[3,4-b][1,3,4]thiadiazole] | 494 nM | 303 nM | 1540 nM | 647 nM | 253 nM | 1000 nM | 356 nM | 678 nM | 549 nM | 379 nM | 119 nM |
| CCN(CC)c1ccc(-c2nn3c(-c4ccccc4Cl)nnc3s2)cc1 [Entry G1, 3-(2-Chlorophenyl)-6-(4-diethylaminophenyl)-[1,2,4]triazolo[3,4-b][1,3,4]thiadiazole] | 455 nM | 155 nM | 584 nM | 1380 nM | 149 nM | 492 nM | 593 nM | 627 nM | 405 nM | 575 nM | 41 nM |
| COc1ccccc1-c1nnc2sc(-c3cc4ccccc4o3)nn12 [Entry A1, 6-(Benzofuran-2-yl)-3-(2-methoxyphenyl)-[1,2,4]triazolo[3,4-b][1,3,4]thiadiazole] | 160 nM | 124 nM | 662 nM | 321 nM | 126 nM | 2500 nM | 92 nM | 198 nM | 966 nM | 115 nM | 58 nM |
| COc1ccc(-c2nn3c(-c4cc(OC)c(OC)c(OC)c4)nnc3s2)cc1OC [V, 6-(3,4-Dimethoxyphenyl)-3-(3,4,5-trimethoxyphenyl)-[1,2,4]triazolo[3,4-b][1,3,4]thiadiazole] | > 10000 nM | 1600 nM | > 10000 nM | > 10000 nM | > 10000 nM | 5000 nM | > 10000 nM | > 10000 nM | 5000 nM | 2320 nM | 3650 nM |

Other lines, results leading:

| EC50 [1] | GI50 [2] | EC50 [3] | EC50 [4] | GI50 [5] | GI50 [6] | EC50 [7] | EC50 [8] | GI50 [9] | EC50 [10] | GI50 [11] | Structure (SMILES) |
| --- | --- | --- | --- | --- | --- | --- | --- | --- | --- | --- | --- |
| > 10000 nM | 1460 nM | 2420 nM | > 10000 nM | > 10000 nM | > 10000 nM | > 10000 nM | > 10000 nM | > 10000 nM | 2440 nM | 4990 nM | COc1ccc(-c2nn3c(-c4cc(OC)c(OC)c(OC)c4)nnc3s2)cc1 [Entry S, 6-(4-Methoxyphenyl)-3-(3,4,5-trimethoxyphenyl)-[1,2,4]triazolo[3,4-b][1,3,4]thiadiazole] |
| 2120 nM | 1880 nM | 2450 nM | 2670 nM | 2040 nM | 6040 nM | 552 nM | 688 nM | 6730 nM | 532 nM | 1300 nM | Clc1ccccc1-c1nnc2sc(-c3ccc4c(c3)OCCO4)nn12 [Q, 3-(2-Chlorophenyl)-6-(3,4-ethylenedioxyphenyl)-[1,2,4]triazolo[3,4-b][1,3,4]thiadiazole] |
| 297 nM | 131 nM | 517 nM | 336 nM | 500 nM | 906 nM | 611 nM | 490 nM | 559 nM | 314 nM | 137 nM | COc1cc(-c2nnc3sc(-c4ccc(C)c(C)c4)nn23)cc(OC)c1OC [Entry T, 6-(3,4-Dimethylphenyl)-3-(3,4,5-trimethoxyphenyl)-[1,2,4]triazolo[3,4-b][1,3,4]thiadiazole] |
| 482 nM | 379 nM | 607 nM | 661 nM | 559 nM | 400 nM | 469 nM | 505 nM | 500 nM | 387 nM | 123 nM | Cc1cccc(-c2nn3c(-c4ccc(Cl)cc4Cl)nnc3s2)c1 [K, 3-(2,4-Dichlorophenyl)-6-m-tolyl-[1,2,4]triazolo[3,4-b][1,3,4]thiadiazole] |
